Data published in patent publication US6737383B1, “Herbicidal oxadiazolidines” (priority 1999, dated 2004).

How the values were obtained:
[1] = test system: crabgrass; assay: Test B pre/postemergence crabgrass; type: in vivo, Digitaria sanguinalis
In short: (§1)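 Test chemicals in a non-phytotoxic solvent mixture with surfactant were sprayed preemergence onto planted seeds and postemergence onto plants 2 to 18 cm tall (1- to 4-leaf stage). After twelve to sixteen days in a greenhouse, injury was visually rated against untreated controls from 0 (no effect) to 10 (complete control).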

[2] = test system: giant foxtail; assay: Test B pre/postemergence giant foxtail; type: in vivo, Setaria faberii
In short: as §1

[3] = test system: wheat; assay: Test B pre/postemergence wheat; type: in vivo, Triticum aestivum; conditions: for Plant response rating, Wheat: Rate 250 g/ha
In short: as §1

[4] = test system: duck salad; assay: Test B flood test duck salad; type: in vivo, Heteranthera limosa
In short: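 Each value is a visual injury score relative to controls, with 10 meaning complete control and 0 no effect. Evaluation took place twelve to sixteen days after the 2-leaf-stage plants were treated and kept in the greenhouse.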

[5] = test system: common pursiane; assay: Test D common purslane; type: in vivo, Portulaca oleracea
In short: (§2)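 Greenhouse pots, seeds in sandy loam; compounds formulated in non-phytotoxic solvent with surfactant; preemergence treatments went on the soil surface within one day of planting. Injury rated visually 14 to 21 days after application on a 0 (none) to 100 (complete control) scale.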

[6] = test system: Johnson grass; assay: Test D Johnson grass; type: in vivo, Sorghum halepense; conditions: Preemergence, 0 to 100 scale
In short: as §2

[7] = test system: purple nutsedge; assay: Test D purple nutsedge; type: in vivo, Cyperus rotundus; conditions: Preemergence, 0 to 100 scale
In short: as §2

[8] = test system: winter wheat; assay: Test E winter wheat; type: in vivo, Triticum aestivum; conditions: Postemergence
In short: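 Visually scored herbicidal effect relative to untreated plants, taken ~21 to 28 days post-application; compound in solvent with surfactant; postemergence sprays at the 1- to 4-leaf stage.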

[9] = test system: blackgrass; assay: Test E blackgrass; type: in vivo, Alopecurus myosuroides; conditions: Preemergence
[10] = test system: green foxtail; assay: Test E green foxtail; type: in vivo, Setaria viridis; conditions: Preemergence
[11] = test system: Italian ryegrass; assay: Test E Italian ryegrass; type: in vivo, Lolium multiflorum; conditions: Preemergence
[12] = test system: winter wheat; assay: Test E winter wheat; type: in vivo, Triticum aestivum; conditions: Preemergence
[13] = test system: wild oat; assay: Test E wild oat; type: in vivo, Avena fatua; conditions: Preemergence
[14] = test system: winter barley; assay: Test E winter barley; type: in vivo, Hordeum vulgare; conditions: Preemergence
[15] = Postemergence, Rate 125 g/ha, scale of 0 to 10 where 0 is no effect and 10 is complete control
[16] = Postemergence, Rate 250 g/ha, scale 0 to 10, 0 no effect, 10 complete control
[17] = Preemergence, Rate 62 g/ha, scale 0 to 10 (0 no effect, 10 complete control)
[18] = Preemergence, Rate 125 g/ha, scale 0 to 10 (0 no effect, 10 complete control)
[19] = Preemergence, Rate 250 g/ha, scale of 0 to 10 where 0 is no effect and 10 is complete control
[20] = Preemergence, Rate 500 g/ha, scale 0 to 10 (0 no effect, 10 complete control)
[21] = Rate 62 g/ha, Postemergence, scale of 0 to 10 where 0 is no effect and 10 is complete control
[22] = Rate 500 g/ha, Postemergence, scale 0 to 10, 0 no effect, 10 complete control
[23] = Rate 16 g/ha, 0 no injury, 100 complete control
[24] = Rate 32 g/ha, 0 no injury, 100 complete control
[25] = Rate 64 g/ha, 0 no injury, 100 complete control
[26] = Rate 125 g/ha, 0 no injury, 100 complete control
[27] = Rate 31 g/ha, 0 to 100 scale, 0 no effect, 100 complete control
[28] = Rate 62 g/ha, 0 to 100 scale, 0 no effect, 100 complete control
[29] = Rate 125 g/ha, 0 to 100 scale (0 no effect, 100 complete control)

Structure (SMILES): CCn1c(=O)on(C(=O)N(c2ccc(F)cc2)C(C)C)c1=O [Compound 107]
- Crabgrass plant response rating [1, 15]: 8
- Crabgrass plant response rating [1, 16]: 9
- Crabgrass plant response rating [1, 17]: 10
- Plant response rating, Crabgrass [1, 18]: 10
- Plant response rating, Crabgrass [1, 19]: 10
- Crabgrass plant response rating [1, 20]: 10
- Crabgrass plant response rating [1, 21]: 8
- Crabgrass plant response rating [1, 22]: 9
- Giant foxtail plant response rating [2, 15]: 8
- Giant foxtail plant response rating [2, 16]: 8
- Giant foxtail plant response rating [2, 17]: 10
- Plant response rating, Giant foxtail [2, 18]: 10
- Plant response rating, Giant foxtail [2, 19]: 10
- Giant foxtail plant response rating [2, 20]: 10
- Giant foxtail plant response rating [2, 21]: 8
- Giant foxtail plant response rating [2, 22]: 8
- Wheat plant response rating [3, 15]: 5
- Wheat plant response rating [3, 17]: 0
- Wheat plant response rating (0 to 10 scale) ([3]; Preemergence, Rate 125 g/ha, 0 is no effect, 10 is complete control): 5
- Plant response rating, Wheat ([3]; Preemergence, scale of 0 to 10 where 0 is no effect and 10 is complete control): 7
- Wheat plant response rating [3, 20]: 8
- Wheat plant response rating [3, 21]: 2
- Plant response rating, Wheat ([3]; Postemergence, scale 0 to 10, 0 is no effect, 10 is complete control): 7
- Wheat plant response rating [3, 22]: 8
- Ducksalad plant response rating ([4]; Rate 250 g/ha, headed Pre-emergence (flood test species), scale 0 to 10 (0 no effect, 10 complete control)): 0
- Plant response rating, Ducksalad ([4]; Rate 500 g/ha, headed Pre-emergence (flood test species), scale 0 to 10 (0 no effect, 10 complete control)): 0
- Ducksalad plant response rating ([4]; Rate 1000 g/ha, Pre-emergence (as headed), scale 0 to 10): 0
- Ducksalad plant response rating ([4]; Rate 2000 g/ha, Pre-emergence (as headed), scale 0 to 10): 0
- Plant response rating, C. purslane ([5]; Rate 16 g/ha; Preemergence; 0 to 100 scale, 0 no injury, 100 complete control): 0
- Plant response rating, C. purslane ([5]; Rate 32 g/ha; Preemergence; 0 to 100 scale, 0 no injury, 100 complete control): 0
- Plant response rating, C. purslane ([5]; Rate 64 g/ha, Preemergence; 0 to 100 scale, 0 no injury, 100 complete control): 0
- Plant response rating, C. purslane ([5]; Rate 125 g/ha, Preemergence; 0 to 100 scale, 0 no injury, 100 complete control): 0
- Plant response rating, C. purslane ([5]; Rate 250 g/ha; Preemergence; 0 to 100 scale): 0
- Plant response rating, C. purslane ([5]; Rate 500 g/ha, Preemergence; 0 to 100 scale): 100
- Plant response rating, C. purslane ([5]; Rate 500 g/ha; Preemergence; 0 to 100 scale): 0
- Plant response rating Johnsongrass [6, 23]: 20
- Plant response rating Johnsongrass [6, 24]: 85
- Plant response rating Johnsongrass [6, 25]: 90
- Plant response rating Johnsongrass [6, 26]: 90
- Plant response rating Johnsongrass ([6]; Rate 250 g/ha): 98
- Plant response rating Johnsongrass ([6]; Rate 500 g/ha): 100
- Plant response rating, Purple nutsedge [7, 23]: 0
- Plant response rating, Purple nutsedge [7, 24]: 0
- Purple nutsedge plant response rating [7, 25]: 20
- Purple nutsedge plant response rating [7, 26]: 65
- Plant response rating, Purple nutsedge ([7]; Rate 250 g/ha): 85
- Plant response rating, Purple nutsedge ([7]; Rate 500 g/ha): 85
- Plant response rating, Wheat (winter) [8, 27]: 50
- Plant response rating, Wheat (winter) ([8]; Rate 62 g/ha, 0 to 100 scale): 40
- Plant response rating, Wheat (winter) ([8]; Rate 125 g/ha, 0 to 100 scale): 30
- Plant response rating, Wheat (winter) ([8]; Rate 250 g/ha, 0 to 100 scale (0 no effect, 100 complete control)): 0
- Plant response rating, Blackgrass [9, 27]: 30
- Plant response rating, Blackgrass [9, 28]: 60
- Plant response rating, Blackgrass [9, 29]: 85
- Plant response rating, Blackgrass ([9]; Rate 250 g/ha, 0 to 100 scale): 80
- Plant response rating, Green foxtail [10, 27]: 55
- Plant response rating, Green foxtail [10, 28]: 80
- Plant response rating, Green foxtail [10, 29]: 100
- Plant response rating, Green foxtail ([10]; Rate 250 g/ha, 0 to 100 scale): 95
- Plant response rating, I. Ryegrass [11, 27]: 40
- Plant response rating, I. Ryegrass [11, 28]: 55
- Plant response rating, I. Ryegrass [11, 29]: 98
- Plant response rating, I. Ryegrass ([11]; Rate 250 g/ha, 0 to 100 scale): 95
- Plant response rating, Wheat (winter) [12, 27]: 0
- Plant response rating, Wheat (winter) [12, 28]: 50
- Plant response rating, Wheat (winter) [12, 29]: 30
- Plant response rating, Wheat (winter) ([12]; Rate 250 g/ha, 0 to 100 scale): 40
- Plant response rating, Wild oat [13, 27]: 20
- Plant response rating, Wild oat [13, 28]: 50
- Plant response rating, Wild oat [13, 29]: 60
- Plant response rating, Barley (winter) [14, 27]: 10
- Plant response rating, Barley (winter) [14, 28]: 20
- Plant response rating, Barley (winter) [14, 29]: 20
- Plant response rating, Barley (winter) ([14]; Rate 250 g/ha, 0 to 100 scale): 15
